In brackets after ≈: the same amount, converted by molar mass.

In the experiment the test system is Escherichia coli JW0013. In words: ≥ marks a high value that may be exact or a test limit, other limits are often not marked, values filed in µg/mL are converted to µM.
`CC[C@H](C)[C@H](NC(=O)[C@H](CCCN=C(N)N)NC(=O)[C@@H](N)CCCN=C(N)N)C(=O)N[C@@H](CCCCN)C(=O)N1CCC[C@H]1C(=O)N[C@@H](CCCN=C(N)N)C(=O)N1CCC[C@H]1C(=O)N1CCC[C@H]1C(=O)N[C@@H](CCCN=C(N)N)C(=O)N[C@@H](CC(C)C)C(=O)N1CCC[C@H]1C(=O)N[C@@H](CCCN=C(N)N)C(=O)N1CCC[C@H]1C(=O)N[C@@H](CCCN=C(N)N)C(=O)N1CCC[C@H]1C(=O)N[C@@H](CCCN=C(N)N)C(=O)O` [RRIKPRPPRLPRPRPR] gave an MIC of 0.24 µM (≈ 0.492 µg/mL).

The molecule `CC[C@H](C)[C@H](NC(=O)[C@H](CCCN=C(N)N)NC(=O)[C@@H](N)CCCN=C(N)N)C(=O)N[C@@H](CCCN=C(N)N)C(=O)N1CCC[C@H]1C(=O)N[C@@H](CCCN=C(N)N)C(=O)N[C@@H](CCCN=C(N)N)C(=O)N1CCC[C@H]1C(=O)N[C@@H](CCCN=C(N)N)C(=O)N[C@@H](CC(C)C)C(=O)N1CCC[C@H]1C(=O)N[C@@H](CCCN=C(N)N)C(=O)N1CCC[C@H]1C(=O)N[C@@H](CCCN=C(N)N)C(=O)N1CCC[C@H]1C(=O)N[C@@H](CCCN=C(N)N)C(=O)O` [RRIRPRRPRLPRPRPR] showed an MIC of 0.3 µM (≈ 0.641 µg/mL).

With `CC[C@H](C)[C@H](NC(=O)[C@H](CCCN=C(N)N)NC(=O)[C@H](CCCN=C(N)N)NC(=O)[C@@H]1CCCN1C(=O)[C@@H]1CCCN1C(=O)[C@H](CCCN=C(N)N)NC(=O)[C@H](Cc1c[nH]c2ccccc12)NC(=O)[C@H](CCCN=C(N)N)NC(=O)[C@@H]1CCCN1C(=O)[C@H](CC(C)C)NC(=O)[C@H](Cc1ccc(O)cc1)NC(=O)[C@@H]1CCCN1C(=O)[C@@H]1CCCN1C(=O)[C@H](CCCCN)NC(=O)[C@H](CC(=O)O)NC(=O)[C@@H](N)C(C)C)C(=O)N[C@@H](Cc1ccc(O)cc1)C(=O)N[C@@H](CC(N)=O)C(=O)N[C@@H](CCCN=C(N)N)C(N)=O` [VDKPPYLPRWRPPRRIYNR], the MIC is 1.94 µM (≈ 4.8 µg/mL). Compared with the last molecule, the MIC is about 6.5-fold higher.

In turn, `CC[C@H](C)[C@H](NC(=O)[C@H](CCCN=C(N)N)NC(=O)[C@H](CCCN=C(N)N)NC(=O)[C@@H]1CCCN1C(=O)[C@@H]1CCCN1C(=O)[C@H](CCCN=C(N)N)NC(=O)[C@@H]1CCCN1C(=O)[C@@H](NC(=O)[C@@H]1CCCN1C(=O)[C@H](CC(C)C)NC(=O)[C@H](Cc1ccc(O)cc1)NC(=O)[C@@H]1CCCN1C(=O)[C@@H]1CCCN1C(=O)[C@H](CCCCN)NC(=O)[C@H](CC(=O)O)NC(=O)[C@@H](N)C(C)C)[C@@H](C)O)C(=O)N[C@@H](Cc1ccc(O)cc1)C(=O)N[C@@H](CC(N)=O)C(=O)N[C@@H](CCCN=C(N)N)C(N)=O` [VDKPPYLPTPRPPRRIYNR] displayed an MIC of 2.06 µM (≈ 4.8 µg/mL).

As for `CC[C@H](C)[C@H](NC(=O)[C@H](CCCN=C(N)N)NC(=O)[C@H](CCCN=C(N)N)NC(=O)[C@@H]1CCCN1C(=O)[C@@H]1CCCN1C(=O)[C@H](CCCN=C(N)N)NC(=O)[C@H](CCCN=C(N)N)NC(=O)[C@H](CCCN=C(N)N)NC(=O)[C@@H]1CCCN1C(=O)[C@H](CCCN=C(N)N)NC(=O)[C@H](Cc1ccc(O)cc1)NC(=O)[C@@H]1CCCN1C(=O)[C@H](CCCN=C(N)N)NC(=O)[C@H](CCCCN)NC(=O)[C@H](CC(=O)O)NC(=O)[C@@H](N)C(C)C)C(=O)N[C@@H](Cc1ccc(O)cc1)C(=O)N[C@@H](CC(N)=O)C(=O)N[C@@H](CCCN=C(N)N)C(N)=O` [VDKRPYRPRRRPPRRIYNR], the MIC is 0.941 µM (≈ 2.4 µg/mL).

The values are drawn from DBAASP.
